Measured values from patent publication US20100115666A1, “Transcriptional Repressors of Cytokinin Signaling and Their Use” (FREIE UNIVERSITÄT BERLIN, priority 2006, published 2010).

Experiments:
[1] = tested on: detached leaves; experiment: Chlorophyll retention assay in detached leaves; format: in vivo, Arabidopsis thaliana; settings: wild type leaves, 0.1 μM BA, 10 d dark
Protocol: (b) Quantification of chlorophyll retention by cytokinin. […] Three independent plates with five leaves per plate were examined for each concentration. Two chlorophyll measurements were taken per plate. The chlorophyll content was determined spectrophotometrically as described in Example 3.5. Error bars represent SD (n=15). The chlorophyll retention assay was performed as described by ([…] et al., 2006). Either the sixth or the seventh leaf was detached from 24-days-old in vitro grown seedlings and floated on distilled water supplemented with 0, 0.01, 0.1, 0.5, 1.0 or 5.0 μM BA in 0.1% DMSO in small Petri dishes for 10 d at RT in the dark. Three replicates of each genotype, each consisting of five leaves were taken for measurement. Chlorophyll was extracted with methanol for 24 h in the dark. The amount of chlorophyll was measured with a spectrophotometer, normalized to fresh weight, and the chlorophyll content was calculated as described (Porra et al., 1989).

[2] = tested on: Arabidopsis seedlings; experiment: Cytokinin sensitivity of roots (root elongation, lateral root formation); format: in vivo, Arabidopsis thaliana
Protocol: ([…] plants are less sensitive to cytokinin inhibition of root elongation. Root elongation was measured for each line between 4 and 9 DAG. The root elongation of each line is expressed as percentage of its DMSO control. Results shown for each line represent means from at least three independent replicates. ([…] plants are less sensitive to cytokinin inhibition of lateral root formation. The number of lateral roots was determined 9 DAG. Error bars represent SD (n>15). Arabidopsis seeds were grown on vertical plates containing different concentration of BA ranging from 0.01 μM to 1.0 mM. 0.1% dimethyl sulfoxide (DMSO) was included as vehicle control. The primary root lengths were marked on day four and nine after germination. Photographs were taken with a digital camera (Nikon Coolpix 8800) and root lengths were determined using Scion Image program version beta 4.02 (www.scioncorp.com). The number of lateral roots emerging from the epidermis of the primary root was counted under a microscope […]. The experiments were performed using three independent replicates and 15 seedlings in each replicate. To investigate the cytokinin response in roots, seedlings of wild type and the 35[…] lines were grown on media containing increasing amounts of cytokinin. […] The relative difference in root length increased with increasing cytokinin concentrations (FIG. 7a). […]

[3] = tested on: ARR6:GUS reporter gene; experiment: Protoplast transactivation assay (ARR6:GUS reporter); format: cell-based, Arabidopsis
Protocol: The ARR6:GUS reporter construct and a 35S:GUS construct without any effector plasmid were used as controls. Protoplasts were co-transfected with the ARR6:GUS reporter and an effector plasmid expressing ARR1, ARR1-SRDX or both effector plasmids simultaneously. […] Variations in transformation efficiencies were normalized by using a 35S:NAN reporter gene construct. The mean values and SD of four independent transfection assays were calculated and shown as relative GUS/NAN activity units.
Protoplast isolation and transformation was carried out according to the method described by Hwang and Sheen (Hwang and Sheen, 2001). For isolation of mesophyll protoplasts 4-5 weeks old rosette leaves were used. Transformation of protoplasts was mediated by 40% PEG solution. […] For the transactivation assays, 9 μg of the ARR6: GUS reporter plasmid and 14 μg of each effector plasmid carrying 35S:ARR1 and 35S:ARR1-SRDX were used. For normalization 3 μg of a plasmid harboring the 35S:NAN gene (Kirby and Kavanagh, 2002) was added. Both GUS and NAN enzyme assays were performed according to Kirbay and Kavanagh (Kirby and Kavanagh, 2002). The ratios of GUS and NAN activities were calculated as relative GUS/NAN activity units.

c1ccc(CNc2ncnc3[nH]cnc23)cc1 [BA]
chlorophyll retention [1]: strongly increased chlorophyll retention | root length reduction compared to control ([2]; wild type plants, 1 μM BA): 75% | lateral root formation ([2]; wild type, 0.1 μM BA): unable to produce lateral roots

C/C(=C\CNc1ncnc2nc[nH]c12)CO [cytokinin, trans-zeatin]
induction of the reporter gene expression compared to the non-induced condition ([3]; ARR6:GUS reporter without effector, 500 nM trans-zeatin, 16 h): more than threefold induction | further increase of the GUS activity on addition of cytokinin ([3]; with 35S:ARR1 effector, 500 nM trans-zeatin): twofold increase

B1: ARR1: Arabidopsis thaliana B-type response regulator ARR1 (SEQ ID NO: 12), expressed under the 35S promoter (protein, listed as Arabidopsis thaliana)
chain: MMNPSHGRGLGSAGGSSSGRNQGGGGETVVEMFPSGLRVLVVDDDPTCLMILERMLRTCLYEVTKCNRAEMALSLLRKNKHGFDIVISDVHMPDMDGFKLLEHVGLEMDLPVIMMSADDSKSVVLKGVTHGAVDYLIKPVRMEALKNIWQHVVRKRRSEWSVPEHSGSIEETGERQQQQHRGGGGGAAVSGGEDAVDDNSSSVNEGNNWRSSSRKRKDEEGEEQGDDKDEDASNLKKPRVVWSVELHQQFVAAVNQLGVEKAVPKKILELMNVPGLTRENVASHLQKYRIYLRRLGGVSQHQGNLNNSFMTGQDASFGPLSTLNGFDLQALAVTGQLPAQSLAQLQAAGLGRPAMVSKSGLPVSSIVDERSIFSFDNTKTRFGEGLGHHGQQPQQQPQMNLLHGVPTGLQQQLPMGNRMSIQQQIAAVRAGNSVQNNGMLMPLAGQQSLPRGPPPMLTSSQSSIRQPMLSNRISERSGFSGRNNIPESSRVLPTSYTNLTTQHSSSSMPYNNFQPELPVNSFPLASAPGISVPVRKATSYQEEVNSSEAGFTTPSYDMFTTRQNDWDLRNIGIAFDSHQDSESAAFSASEAYSSSSMSRHNTTVAATEHGRNHQQPPSGMVQHHQVYADGNGGSVRVKSERVATDTATMAFHEQYSNQEDLMSALLKQV
GUS activity ([3]; co-transfection with ARR1 under 35S promoter, absence of cytokinin): strong increase in GUS activity
